The nature of data set [1]: Tissue binding assay (equilibrium dialysis), brain homogenate. It is filed as in vitro ADME. Conditions: mouse brain homogenate, dialysis 4 hours at 37° C., pH 7.4. The method, then: (§1) Buffer preparation. A basic solution was prepared by dissolving 14.2 g/L Na2HPO4 and 8.77 g/L NaCl in deionized H2O. An acidic solution was prepared by dissolving 15.6 g/L NaH2PO4·2H2O and 8.77 g/L NaCl in deionized H2O. Using the acidic solution, the basic solution was then titrated to pH 7.4±0.1 and stored at 4° C. for up to 1 month. The stop solution was 100% CH3CN containing 200 ng/ml tolbutamide, 200 ng/ml labetalol and 50 ng/ml metformin.
(§2) Test method. Dialysis membrane strips were soaked in ultra-pure water at room temperature for ~1 hour. Each membrane strip containing 2 membranes was separated and soaked in 20:80 EtOH/H2O (v/v) for ~20 min, after which they were ready for use or were stored in the solution at 2-8° C. for up to 1 month. Prior to the experiment, the membrane was rinsed and soaked for 20 min in ultra-pure water. On the day of experiment, brain homogenate was thawed in a water bath at room temperature and incubated at 37° C. for 10 min before use. Test and control compounds were dissolved in DMSO to achieve 10 mM stock solutions. DMSO working solutions were prepared at 400 μM by diluting 10 μL of stock solution. To prepare the time zero (t=0) samples to be used for recovery determination, 50 μL aliquots of loading matrix were transferred in triplicate to the sample collection plate. The samples were immediately matched with opposite blank buffer to obtain a final volume of 100 μL of 1:1 matrix/dialysis buffer (v/v) in each well. 500 μL of stop solution were added to these t=0 samples. They were then stored at 2-8° C. pending further processes along with other post-dialysis samples. To load the dialysis device, an aliquot of 150 μL of the loading matrix was transferred to the donor side of each dialysis well in triplicate, and 150 μL of the dialysis buffer was loaded to the receiver side of the well. The dialysis plate was placed in a humidified incubator at 37° C. with 5% CO2 on a shaking platform that rotated slowly (about 100 rpm) for 4 hours. At the end of the dialysis, aliquots of 50 μL of samples were taken from both the buffer side and the matrix side of the dialysis device. These samples were transferred into new 96-well plates. Each sample was mixed with an equal volume of opposite blank matrix (buffer or matrix) to reach a final volume of 100 μL of 1:1 matrix/dialysis buffer (v/v) in each well. All samples were further processed by adding 500 μL of stop solution containing internal standards. The mixture was vortexed and centrifuged at 4000 rpm for about 20 min. An aliquot of 100 μL of supernatant of all the samples was then removed for LC-MS/MS analysis. The single blank samples were prepared by transferring 50 μL of blank matrix to a 96-well plate and adding 50 μL of blank PBS buffer to each well. Then the matrix-matched samples were further processed by adding 500 μL of stop solution containing internal standards, following the same sample processing method as the dialysis samples.
(§3) Data analysis. The % undiluted unbound, % undiluted bound and % recovery were calculated using the following equations: […]
(§4) where F is the analyte concentration or peak area ratio of analyte/internal standard on the buffer (receiver) side of the membrane; T is the analyte concentration or peak area ratio of analyte/internal standard on the matrix (donor) side of the membrane; To is the analyte concentration or the peak area ratio of analyte/internal standard in the loading matrix sample at time zero; and D is the dilution factor determined as 4 in this assay.
In general terms: In equilibrium dialysis only unbound substance equilibrates across the membrane.

Data set [2] is described as follows: Tissue binding assay (equilibrium dialysis), plasma. Format: in vitro ADME. Conditions: mouse plasma, dialysis 4 hours at 37° C., pH 7.4. Here is the method: [Worded in the source for another target; this target is reported under the same test.] as §1, §2, §3, §4
The nature of data set [3]: PK brain permeability after single oral gavage. Format: in vivo, C57BL/6 mice. Conditions: mice, 10 mg/kg oral, 2 hours post dose; for concentration at 2 h / Kp at 2 h: male, C57BL/6, mouse; for concentration at 2 h: po, 10 mg/kg; for Kp at 2 h: read-out: Kpu, u (unbound partitioning coefficient, Cb,u to Cp,u); for brain permeability (in words): statement on Table 3. Here is the method:
The distribution of compounds into the brain in vivo was determined in C57BL/6 mice following single oral (po) gavage administration.
Test compounds were formulated at 1 mg/mL in 0.5% HPMC E4M, 0.2% Tween 80 in water to achieve solutions or homogenous suspensions suitable for po administration. Formulations were administered to 3 male C57BL/6 mice at a volume of 10 mL/kg resulting in a dose level of 10 mg/kg. Blood samples were collected at 1 and 2 hours post dose into tubes containing K2EDTA as anticoagulant, processed to plasma and stored at −60° C. or lower until LC-MS/MS analysis. Brains were harvested 2 hours post dose, rinsed with saline, dried, weighed and homogenised under ice cold conditions. Brain homogenates were stored at −60° C. or lower until LC-MS/MS analysis.
Dose formulation concentrations were verified using a LC-UV or LC-MS/MS method. Test compound concentrations in plasma and brain homogenate were quantitatively determined using LC-MS/MS methods developed in individual matrices against calibration curves with QC samples included and acceptance criteria as per CRO SOPs. Concentrations in brain homogenate were corrected for the dilution factor used to prepare the homogenate to give concentrations in whole brain tissue.
Plasma and brain concentration versus time data were reported and plotted in excel. The brain to plasma ratio at 2 hours post dose was calculated for each animal using the following equation:
Brain: plasma=brain concentration (ng/g) at 2 h/plasma concentration (ng/ml) at 2 h As only unbound test compound is available to exert an effect on the target, unbound plasma (Cp,u) and unbound brain (Cb,u) concentrations were calculated by correcting the total concentrations for the unbound fraction in plasma (fu,p) or brain (fu,b) determined from in vitro plasma protein or brain tissue binding assays using the following equations: […]
The unbound partitioning coefficient (Kpu,u) was then calculated based on the ratio of Cb,u to Cp,u using the following equation: […]
In these studies, mice were orally administrated a 10 mg/kg dose and sacrificed 2 hours post dose and tissue samples (brain homogenate and plasma) were analyzed subsequently as described above.

[4] abbreviates: brain, read-out: total brain conc.
The mark [5] stands for this setting: brain, total corrected for unbound fraction in brain, read-out: free brain conc.
Setting [6] is: plasma, read-out: total plasma conc.
Setting [7] is: plasma, total corrected for unbound fraction in plasma, read-out: free plasma conc.

Read-outs that look alike come from different tables or passages of the source.

Broadly, the fraction unbound is the share of the substance not bound to proteins or other matrix.

As for `O=C(N[C@H]1CC[C@H](NCC(F)(F)F)CC1)c1cn2ncnc2c(-n2ccnc2)n1` [Example 20, 8-(1H-imidazol-1-yl)-N-((1r,4r)-4-((2,2,2-trifluoroethyl)amino)cyclohexyl)-[1,2,4]triazolo[1,5-a]pyrazine-6-carboxamide], the free fraction (fraction unbound) at 4 h in data set [1] worked out at 0.34; in data set [2] it was 0.14. Also, the concentration at 2 h turned out to be 1420 nM in data set [3] (setting [4]), 481 nM in data set [3] (setting [5]), 17900 nM in data set [3] (setting [6]) and 2630 nM in data set [3] (setting [7]). For the same molecule, the Kp at 2 h in data set [3] (brain) amounted to 0.18. Further, the “brain permeability (in words)” value in data set [3] is recorded as “good brain permeability”.

As for `O=C(N[C@H]1CC[C@H](N2CCC(F)(F)C2)CC1)c1nc(-n2ccnc2)nn2cccc12` [Example 12, N-((1r,4r)-4-(3,3-difluoropyrrolidin-1-yl)cyclohexyl)-2-(1H-imidazol-1-yl)pyrrolo[2,1-f][1,2,4]triazine-4-carboxamide], the free fraction (fraction unbound) at 4 h in data set [1] is 0.068; in data set [2], 0.062. Also, the concentration at 2 h worked out at 8370 nM in data set [3] (setting [4]), 575 nM in data set [3] (setting [5]), 12600 nM in data set [3] (setting [6]) and 788 nM in data set [3] (setting [7]). Further, the Kp at 2 h in data set [3] (brain) was found to be 0.79. The “brain permeability (in words)” value in data set [3] is recorded as “good brain permeability”.

Turning to `O=C(N[C@H]1CC[C@H](NCC(F)(F)F)CC1)c1cn2ccnc2c(-n2ccnc2)n1` [Example 19, 8-(1H-imidazol-1-yl)-N-((1r,4r)-4-((2,2,2-trifluoroethyl)amino)cyclohexyl) imidazo[1,2-a]pyrazine-6-carboxamide], the fraction unbound at 4 h amounted to 0.25 in data set [1] and 0.19 in data set [2]. Besides, the concentration at 2 h in data set [3] (setting [4]) worked out at 864 nM; in data set [3] (setting [5]), 218 nM; in data set [3] (setting [6]), 5010 nM; in data set [3] (setting [7]), 954 nM. Further, the Kp at 2 h in data set [3] (brain) was 0.22. Also, the “brain permeability (in words)” value in data set [3] is on record as “good brain permeability”.
